18 compounds from patent publication US20240383856A1 (Zedira GmbH, priority 2021, published 2024) can be followed below.

SMILES strings stand for the structures.

Data set [1] has as its target T1, recombinant human transglutaminase 2 (Homo sapiens, UniProt P21980).
T1 construct: purchased Zedira T022
T1 sequence (P21980 1-687): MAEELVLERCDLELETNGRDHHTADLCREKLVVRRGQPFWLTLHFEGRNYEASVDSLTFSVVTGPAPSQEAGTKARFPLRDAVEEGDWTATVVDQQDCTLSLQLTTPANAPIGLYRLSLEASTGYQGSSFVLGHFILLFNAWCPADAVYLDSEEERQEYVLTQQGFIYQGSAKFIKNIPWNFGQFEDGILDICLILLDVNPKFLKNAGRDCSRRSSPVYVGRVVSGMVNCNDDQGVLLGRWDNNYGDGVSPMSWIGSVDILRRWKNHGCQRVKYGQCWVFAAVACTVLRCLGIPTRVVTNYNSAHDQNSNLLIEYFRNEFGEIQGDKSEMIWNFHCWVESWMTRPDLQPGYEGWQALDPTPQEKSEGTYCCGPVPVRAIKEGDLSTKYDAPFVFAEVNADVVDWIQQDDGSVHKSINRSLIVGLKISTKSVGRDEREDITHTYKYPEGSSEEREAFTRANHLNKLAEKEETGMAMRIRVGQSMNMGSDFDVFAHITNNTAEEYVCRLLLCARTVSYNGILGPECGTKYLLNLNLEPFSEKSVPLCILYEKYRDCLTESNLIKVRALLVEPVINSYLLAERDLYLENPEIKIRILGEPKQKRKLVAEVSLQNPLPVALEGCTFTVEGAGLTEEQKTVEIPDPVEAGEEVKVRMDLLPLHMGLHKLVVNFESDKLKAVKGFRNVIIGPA
Description: Transglutaminase assay (DCC-assay): incorporation of dansylcadaverine into dimethylcasein. To be noted: recombinant human TG2 10 nM; dansylcadaverine incorporation into dimethylcasein; read-out: IC50 TG2. Format: biochemical. In a few lines: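 Recombinant human TG2 (10 nM final) incorporates dansylcadaverine into N,N-dimethylcasein. Reaction mix: 50 mM Tris-HCl, 10 mM CaCl2, 10 mM glutathione, 2.5% glycerol, 16.7 µM dansylcadaverine, 4 µM dimethylcasein, 200 mM NaCl, pH 8.0. Fluorescence (ex 330/em 500 nm) was followed 30 min at 37 °C; the 20–30 min slope, expressed as % of 2% DMSO control, gave IC50.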

The nature of data set [2]: Caco-2 permeability assay (CacoReady kit). Format: in vitro ADME. The note with it: human, Caco-2, Caco-2 barrier, CacoReady kit; above 1×10^−6 cm/s classified as permeable. In a few lines:
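Papp values come from Caco-2 barrier studies intended to predict oral bioavailability; the manufacturer's procedure for the ready-made kit was followed.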
(In general: Passage across Caco-2 layers is used to estimate intestinal permeability.)

Data set [3] can be described thus: logD by shake flask method (octanol / PBS pH 7.4, HPLC). To be noted: octanol / PBS pH 7.4, shake flask. Format: physicochemical. In a few lines: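 Shake-flask partition of compound between octanol and phosphate-buffered saline at pH 7.4, with each phase quantified by HPLC to give LogD.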

For orientation: IC50 means the midpoint of a concentration-inhibition curve. Broadly, the Papp is a coefficient for how fast a substance crosses the barrier. A word on the logD: it is the decadic logarithm of the distribution of all forms, ionised or not, between an organic phase and buffer at a given pH. Low values mean lower lipophilicity, high ones higher lipophilicity. On to `CNC(=O)C(=O)CC[C@H](NC(=O)c1oc2ccccc2c1C)C(=O)Nc1cccn(CC(=O)NC23CCCC4CC(CCC42)C3)c1=O` (stereo partly drawn) [II-103, (S)-N1-(1-(2-(4-homoisotwistane-3-amino)-2-oxoethyl)-2-oxo-1,2-dihydropyridin-3-yl)-N6-methyl-2-(3-methylbenzofuran-2-carboxamido)-5-oxohexanediamide], for which the IC50 in data set [1] is 40 to 400 nM. Moreover, the Papp in data set [2] is 1 to 10 ×10⁻⁶ cm/s. Moreover, the logD in data set [3] lay in the range of 1 to 3.

As for `CNC(=O)C(=O)CC[C@H](NC(=O)c1oc2ccccc2c1C)C(=O)Nc1cccn(CC23CC4CC(CC(C4)C2)C3)c1=O` [II-107, (S)-N1-(1-(1-adamantylmethyl)-2-oxo-1,2-dihydropyridin-3-yl)-N6-methyl-2-(3-methylbenzofuran-2-carboxamido)-5-oxohexanediamide], the IC50 in data set [1] was 40 to 400 nM. In data set [2], this compound gave a Papp of 1 to 10 ×10⁻⁶ cm/s. In data set [3], this compound gave a pH-dependent lipophilicity (logD) of 3 to 5.

Regarding `CNC(=O)C(=O)CC[C@H](NC(=O)c1oc2ccccc2c1C)C(=O)Nc1cccn(CC23CC4CC(CC(O)(C4)C2)C3)c1=O` [II-108, (2S)-N1-(1-((3-hydroxy-1-adamantyl)methyl)-2-oxo-1,2-dihydropyridin-3-yl)-N6-methyl-2-(3-methylbenzofuran-2-carboxamido)-5-oxohexanediamide], the IC50 in data set [1] is 40 to 400 nM. Further, the Papp in data set [2] is less than 1 ×10⁻⁶ cm/s. Moreover, the logD in data set [3] lay in the range of 1 to 3.

As to `CNC(=O)C(=O)CC[C@H](NC(=O)c1oc2ccccc2c1C)C(=O)Nc1cccn(CC23CC4CC(CC(Br)(C4)C2)C3)c1=O` [II-109, (2S)-N1-(1-((3-bromo-1-adamantyl)methyl)-2-oxo-1,2-dihydropyridin-3-yl)-N6-methyl-2-(3-methylbenzofuran-2-carboxamido)-5-oxohexanediamide], in data set [1], the IC50 fell in the range of 40 to 400 nM. Moreover, the Papp in data set [2] lay within 1 to 10 ×10⁻⁶ cm/s. Besides, the logD in data set [3] lay in the range of 3 to 5.

Regarding `CNC(=O)C(=O)CC[C@H](NC(=O)c1oc2ccccc2c1C)C(=O)Nc1cccn(CC2C3CC4CC(C3)CC2C4)c1=O` (stereo partly drawn) [II-110, (S)-N1-(1-(2-adamantylmethyl)-2-oxo-1,2-dihydropyridin-3-yl)-N6-methyl-2-(3-methylbenzofuran-2-carboxamido)-5-oxohexanediamide], in data set [1], the IC50 was 40 to 400 nM. In data set [2], the Papp lay in the range of 1 to 10 ×10⁻⁶ cm/s. Further, the logD in data set [3] was in the range of 3 to 5.

With `CNC(=O)C(=O)CC[C@H](NC(=O)c1cccnc1)C(=O)Nc1cccn(CC(=O)NC2C3CC4CC(C3)CC2C4)c1=O` (stereo partly drawn) [II-111, (S)-N1-(1-(2-(2-adamantylamino)-2-oxoethyl)-2-oxo-1,2-dihydropyridin-3-yl)-N6-methyl-2-(nicotinamido)-5-oxohexanediamide], the IC50 in data set [1] is less than 40 nM. In data set [2], the Papp was less than 1 ×10⁻⁶ cm/s. The logD in data set [3] lay within 1 to 3.

Regarding `CNC(=O)C(=O)CC[C@H](NC(=O)c1ccncc1)C(=O)Nc1cccn(CC(=O)NC2C3CC4CC(C3)CC2C4)c1=O` (stereo partly drawn) [II-112, (S)-2-(isonicotinamido)-N1-(1-(2-(2-adamantylamino)-2-oxoethyl)-2-oxo-1,2-dihydropyridin-3-yl)-N6-methyl-5-oxohexanediamide], in data set [1], the IC50 was less than 40 nM. The Papp in data set [2] was less than 1 ×10⁻⁶ cm/s. Also, the logD in data set [3] was in the range of 1 to 3.

As for `CNC(=O)C(=O)CC[C@H](NC(=O)c1ccnnc1)C(=O)Nc1cccn(CC(=O)NC2C3CC4CC(C3)CC2C4)c1=O` (stereo partly drawn) [II-113, (S)-N1-(1-(2-(2-adamantylamino)-2-oxoethyl)-2-oxo-1,2-dihydropyridin-3-yl)-N6-methyl-5-oxo-2-(pyridazine-4-carboxamido)hexanediamide], the IC50 in data set [1] is 40 to 400 nM. For the same compound, the Papp in data set [2] was less than 1 ×10⁻⁶ cm/s. The logD in data set [3] was less than 1.

For `CNC(=O)C(=O)CC[C@H](NC(=O)c1cccnn1)C(=O)Nc1cccn(CC(=O)NC2C3CC4CC(C3)CC2C4)c1=O` (stereo partly drawn) [II-114, (S)-N1-(1-(2-(2-adamantylamino)-2-oxoethyl)-2-oxo-1,2-dihydropyridin-3-yl)-N6-methyl-5-oxo-2-(pyridazine-3-carboxamido)hexanediamide], the IC50 in data set [1] lay within 40 to 400 nM. Moreover, the apparent permeability coefficient (Papp) in data set [2] is less than 1 ×10⁻⁶ cm/s. This compound also came in with a logD in data set [3] of less than 1.

With `Cc1c(C(=O)N[C@@H](CCC(=O)C(=O)NC2CC2)C(=O)Nc2cccn(CC(=O)NC3C4CC5CC(C4)CC3C5)c2=O)oc2ccccc12` (stereo partly drawn) [II-115, (S)-N1-cyclopropyl-N6-(1-(2-(2-adamantylamino)-2-oxoethyl)-2-oxo-1,2-dihydropyridin-3-yl)-5-(3-methylbenzofuran-2-carboxamido)-2-oxohexanediamide], the IC50 in data set [1] is 40 to 400 nM. Moreover, in data set [2], the Papp is 1 to 10 ×10⁻⁶ cm/s. In addition, the logD in data set [3] is 3 to 5.

Consider `CCCCCNC(=O)C(=O)CC[C@H](NC(=O)c1oc2ccccc2c1C)C(=O)Nc1cccn(CC(=O)NC2C3CC4CC(C3)CC2C4)c1=O` (stereo partly drawn) [II-116, (S)-N1-(1-(2-(2-adamantylamino)-2-oxoethyl)-2-oxo-1,2-dihydropyridin-3-yl)-2-(3-methylbenzofuran-2-carboxamido)-5-oxo-N6-pentylhexanediamide], for which, in data set [1], the IC50 lay in the range of 40 to 400 nM. This compound gave a Papp in data set [2] of 1 to 10 ×10⁻⁶ cm/s. The same compound registered a logD in data set [3] of 3 to 5.

For `C=CCNC(=O)C(=O)CC[C@H](NC(=O)c1oc2ccccc2c1C)C(=O)Nc1cccn(CC(=O)NC2C3CC4CC(C3)CC2C4)c1=O` (stereo partly drawn) [II-117, (S)-N1-allyl-N6-(1-(2-(2-adamantylamino)-2-oxoethyl)-2-oxo-1,2-dihydropyridin-3-yl)-5-(3-methylbenzofuran-2-carboxamido)-2-oxohexanediamide], in data set [1], the IC50 fell in the range of 40 to 400 nM. In data set [2], the Papp fell in the range of 1 to 10 ×10⁻⁶ cm/s. This compound also gave a logD in data set [3] of 3 to 5.

Take `Cc1c(C(=O)N[C@@H](CCC(=O)C(N)=O)C(=O)Nc2cccn(CC(=O)NC3C4CC5CC(C4)CC3C5)c2=O)oc2ccccc12` (stereo partly drawn) [II-118, (S)-N1-(1-(2-(2-adamantylamino)-2-oxoethyl)-2-oxo-1,2-dihydropyridin-3-yl)-2-(3-methylbenzofuran-2-carboxamido)-5-oxohexanediamide]: the IC50 in data set [1] is less than 40 nM. In data set [2], this compound gave an apparent permeability (Papp) of 1 to 10 ×10⁻⁶ cm/s. For the same compound, the logD in data set [3] was 1 to 3.

In the case of `C=CCNC(=O)C(=O)CC[C@H](NC(=O)c1cc2ccccc2o1)C(=O)Nc1cccn(CC(=O)NC2C3CC4CC(C3)CC2C4)c1=O` (stereo partly drawn) [II-119, (S)-N1-allyl-5-(benzofuran-2-carboxamido)-N6-(1-(2-(2-adamantylamino)-2-oxoethyl)-2-oxo-1,2-dihydropyridin-3-yl)-2-oxohexanediamide], the IC50 in data set [1] is 40 to 400 nM. In addition, in data set [2], the Papp lay within 1 to 10 ×10⁻⁶ cm/s. This compound showed a logD in data set [3] of 3 to 5.

Regarding `CC(C)NC(=O)C(=O)CC[C@H](NC(=O)c1cc2ccccc2o1)C(=O)Nc1cccn(CC(=O)NC2C3CC4CC(C3)CC2C4)c1=O` (stereo partly drawn) [II-120, (S)-2-(benzofuran-2-carboxamido)-N6-isopropyl-N1-(1-(2-(2-adamantylamino)-2-oxoethyl)-2-oxo-1,2-dihydropyridin-3-yl)-5-oxohexanediamide], in data set [1], the IC50 was in the range of 40 to 400 nM. In addition, the Papp in data set [2] was in the range of 1 to 10 ×10⁻⁶ cm/s. Further, the logD in data set [3] is 3 to 5.

`O=C(Cn1cccc(NC(=O)[C@H](CCC(=O)C(=O)NC2CC2)NC(=O)c2cc3ccccc3o2)c1=O)NC1C2CC3CC(C2)CC1C3` (stereo partly drawn) [II-121, (S)-2-(benzofuran-2-carboxamido)-N6-cyclopropyl-N1-(1-(2-(2-adamantylamino)-2-oxoethyl)-2-oxo-1,2-dihydropyridin-3-yl)-5-oxohexanediamide]: the IC50 in data set [1] was 40 to 400 nM. Moreover, in data set [2], the Papp lay within 1 to 10 ×10⁻⁶ cm/s. For the same compound, in data set [3], the logD lay in the range of 3 to 5.

On to `O=C(Cn1cccc(NC(=O)[C@H](CCC(=O)C(=O)Nc2ccccc2)NC(=O)c2cc3ccccc3o2)c1=O)NC1C2CC3CC(C2)CC1C3` (stereo partly drawn) [II-122, (S)-2-(benzofuran-2-carboxamido)-N1-(1-(2-(2-adamantylamino)-2-oxoethyl)-2-oxo-1,2-dihydropyridin-3-yl)-5-oxo-N6-phenylhexanediamide], for which the IC50 in data set [1] was 400 to 2500 nM. The Papp in data set [2] fell in the range of 1 to 10 ×10⁻⁶ cm/s. This compound returned a logD in data set [3] of 3 to 5.

`O=C(Cn1cccc(NC(=O)[C@H](CCC(=O)C(=O)NCc2ccccc2)NC(=O)c2cc3ccccc3o2)c1=O)NC1C2CC3CC(C2)CC1C3` (stereo partly drawn) [II-123, (S)-2-(benzofuran-2-carboxamido)-N6-benzyl-N1-(1-(2-(2-adamantylamino)-2-oxoethyl)-2-oxo-1,2-dihydropyridin-3-yl)-5-oxohexanediamide]: in data set [1], the IC50 was in the range of 400 to 2500 nM. This compound displayed a Papp in data set [2] of 1 to 10 ×10⁻⁶ cm/s. Also, in data set [3], the logD fell in the range of 3 to 5.
